# Target: T1, Heat shock protein HSP 90-beta (Homo sapiens, UniProt P08238)
# Test: Inhibition of HSP90 (unknown origin) by luciferase refolding assay
# T1 sequence (P08238 whole entry): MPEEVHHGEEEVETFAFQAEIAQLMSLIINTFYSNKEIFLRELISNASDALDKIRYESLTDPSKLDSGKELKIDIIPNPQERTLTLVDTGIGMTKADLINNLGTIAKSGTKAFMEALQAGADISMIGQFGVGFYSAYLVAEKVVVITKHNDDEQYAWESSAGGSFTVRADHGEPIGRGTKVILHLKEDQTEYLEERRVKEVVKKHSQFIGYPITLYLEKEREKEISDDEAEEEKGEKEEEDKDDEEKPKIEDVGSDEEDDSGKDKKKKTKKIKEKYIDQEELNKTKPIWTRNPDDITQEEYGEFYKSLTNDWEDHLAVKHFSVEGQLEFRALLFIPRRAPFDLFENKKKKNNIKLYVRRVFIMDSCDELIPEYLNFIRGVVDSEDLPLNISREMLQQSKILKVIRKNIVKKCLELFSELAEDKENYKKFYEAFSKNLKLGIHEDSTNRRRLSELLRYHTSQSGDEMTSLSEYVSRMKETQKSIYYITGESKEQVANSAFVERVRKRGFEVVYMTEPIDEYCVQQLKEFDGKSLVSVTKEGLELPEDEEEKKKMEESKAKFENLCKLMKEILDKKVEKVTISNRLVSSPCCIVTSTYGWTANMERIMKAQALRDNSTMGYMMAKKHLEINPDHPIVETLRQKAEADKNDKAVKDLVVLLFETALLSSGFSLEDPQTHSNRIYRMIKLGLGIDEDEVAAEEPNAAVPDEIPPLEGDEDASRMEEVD
row,IC50 [µM],SMILES
1,64,O=C(O[C@@H]1Cc2c(O)cc(O)cc2O[C@@H]1c1cc(O)c(O)c(O)c1)c1ccncc1
2,30,O=C(O[C@@H]1Cc2c(O)cc(O)cc2O[C@@H]1c1cc(O)c(O)c(O)c1)C1CCCCC1
3,41,O=C(O[C@@H]1Cc2c(O)cc(O)cc2O[C@@H]1c1cc(O)c(O)c(O)c1)c1ccc(F)cc1
4,98,O=C(O[C@H]1Cc2c(O)cc(O)cc2O[C@@H]1c1ccc(O)c(O)c1)C1CCCCC1
5,24,O=C(O[C@@H]1Cc2c(O)cc(O)cc2O[C@@H]1c1cc(O)c(O)c(O)c1)c1ccccc1
6,35,O=C(O[C@@H]1Cc2ccccc2O[C@@H]1c1ccccc1)c1cc(O)c(O)c(O)c1 (racemic)
7,280,O=C(O[C@H]1Cc2c(O)cc(O)cc2O[C@@H]1c1ccc(O)c(O)c1)[C@H]1CC[C@@H](O)CC1
8,410,O=C(O[C@@H]1Cc2c(O)cc(O)cc2O[C@@H]1c1ccc(O)c(O)c1)C1CC1
9,81,O=C(O[C@@H]1Cc2c(O)cc(O)cc2O[C@@H]1c1ccc(O)c(O)c1)C1CCCCC1
10,69,O=C(O[C@@H]1Cc2c(O)cc(O)cc2O[C@@H]1c1ccc(O)c(O)c1)[C@H]1CC[C@H](F)CC1
11,150,O=C(O[C@H]1Cc2c(O)cc(O)cc2O[C@@H]1c1ccccc1)c1cc(O)c(O)c(O)c1 (racemic)
12,65,O=C(O[C@@H]1Cc2c(O)cc(O)cc2O[C@@H]1c1ccc(O)c(O)c1)[C@H]1CC[C@@H](F)CC1
13,110,O=C(O[C@H]1Cc2c(O)cc(O)cc2O[C@@H]1c1ccc(O)c(O)c1)c1ccccc1
14,120,O=C(O[C@H]1Cc2c(O)cc(O)cc2O[C@@H]1c1ccccc1)c1ccccc1 (racemic)
15,440,O=C(O[C@@H]1Cc2c(O)cc(O)cc2O[C@@H]1c1ccc(O)c(O)c1)[C@H]1CC[C@H](O)CC1
16,75,O=C(N[C@@H]1Cc2c(O)cc(O)cc2O[C@@H]1c1cc(O)c(O)c(O)c1)c1ccccc1
17,63,O=C(O[C@@H]1Cc2c(O)cc(O)cc2O[C@@H]1c1ccccc1)c1ccccc1 (racemic)
18,58,O=C(O[C@@H]1Cc2c(O)cc(O)cc2O[C@@H]1c1cc(O)c(O)c(O)c1)c1ccc(F)c(F)c1
19,310,O=C(O[C@@H]1Cc2c(O)cc(O)cc2O[C@@H]1c1ccc(O)c(O)c1)[C@H]1CC[C@@H](O)CC1
20,44,O=S(=O)(N[C@@H]1Cc2c(O)cc(O)cc2O[C@@H]1c1cc(O)c(O)c(O)c1)c1ccccc1

row,SMILES,IC50 [µM]
1,O=C(O[C@@H]1Cc2c(O)cc(O)cc2O[C@@H]1c1cc(O)c(O)c(O)c1)c1cc(O)c(O)c(O)c1 [EPIGALOCATECHIN GALLATE],155
2,O=C(O[C@@H]1Cc2c(O)cc(O)cc2O[C@H]1c1cc(O)c(O)c(O)c1)c1cc(O)c(O)c(O)c1 [GALLOCATECHIN GALLATE],34

# Target: T1, Heat shock protein HSP 90-beta
# Test: Ratio of EGCG IC50 to compound IC50 for HSP90 (unknown origin)
row,Ratio IC50,SMILES
1,3,O=S(=O)(N[C@@H]1Cc2c(O)cc(O)cc2O[C@@H]1c1cc(O)c(O)c(O)c1)c1ccccc1
